Measurements from US20090186047A1, “HCV Vaccinations” (INTERCELL AG, priority 2006, published 2009).

Tested on: HCV peptide-specific T cells (MHC class I-restricted CD8+ / MHC class II-restricted CD4+)
Assay: IFN-γ ELIspot assay of spleen cells after vaccination of mice
Type: in vivo, HLA-A*0201 transgenic mice (HHD.2)
Description: Vaccine: clinical batch PD03127 (lot K) Injection volume of 100 μl per mouse contains:
As adjuvant: Poly-L-Arginine with an average degree of polymerisation of 40 to 50 arginine residues (determined by multiple angle laser light scattering (MALLS)); lot 113K7277; Sigma Aldrich Inc.; 400 μg • Additional adjuvant: Aldara™ containing 5% Imiquimod, an immunostimulatory agent acting via TLR7; 3M Health Care Ltd.; dose: approx 20 mg/mouse • Formulation buffer: 5 mM phosphate/270 mM sorbitol Experimental set-up 10 mice per group • 1. subcutaneous injection into the flank • 2. intradermal injection into the back • 3. intradermal injection into the back followed by immediate application of Aldara™ cream at injection area
On days 0, 14 and 28 mice were injected with a total amount of 100 μl/vaccine/mouse containing the above listed compounds at different sites as indicated. Spleens were harvested for each experimental group on day 35 and enriched for CD4^+ T cells by magnetic separation (MACS). CD4^+ T cell-depleted spleen cells were used to determine the CD8^+ T cell response. MHC class II restricted (CD4^+ T cells) as well as MHC class I restricted T cell responses (CD8^+ T cells) against each single HCV-derived peptide were determined using an IFN-7 ELIspot assay. In general, restimulation with an irrelevant peptide induced no IFN-7 production.
Vaccine: Injection volume of 100 μl per mouse contains: As antigens: Ipep 83 200 μg, Ipep 84 200 μg, Ipep 87 200 μg, Ipep 89 200 μg, Ipep 1426 200 μg As adjuvant: Poly-L-Arginine with an average degree of polymerization of 40 to 50 arginine residues (determined by MALLS); lot 113K7277; Sigma Aldrich Inc.; 400 μg • Additional adjuvant: Aldara™ containing 5% Imiquimod, an immunostimulatory agent acting via TLR7; 3M Health Care Ltd.; dose: approx 20 mg/mouse • Formulation buffer: 5 mM phosphate/270 mM sorbitol Experimental set-up 30 mice per group (10 per time point of analysis) • 1. intradermal injection into the back • 2. intradermal injection into the back followed by immediate application of Aldara™ cream at injection area […]

[1] = Example 1: subcutaneous injection into the flank, days 0, 14 and 28, spleens day 35

GYKVLVLNPSVAAT [Ipep 84]
MHC class I-restricted CD8+ T cell response (IFN-γ ELIspot) [1]: could be detected | MHC class II-restricted CD4+ T cell response (IFN-γ ELIspot) [1]: could be detected | IFN-γ production by MHC class I-restricted CD8+ T cells (Example 2: two intradermal injections, day 21): induced in comparable strength
